In paper PMC9791135, “A penetratin-derived peptide reduces the membrane permeabilization and cell toxicity of α-synuclein oligomers” (The Journal of Biological Chemistry, 2022):
Where a SMILES comes first, the peptide text is derived from it.

How the values were obtained:
SH-SY5Y cells [1] = assay: MTT cell viability assay, substance alone
Method: (§1) The effect of the peptides on αSOs toxicity in SH-SY5Y cells using 3-(4, 5-dimethylthiazol-2-yl)-2,5-diphenyltetrazolium bromide (MTT) cell viability assay was also tested to complement our calcein data.
(§2) We used the MTT assay to measure cell viability after 24 h treatment with αSOs in the presence of peptides. SH-SY5Y cells were seeded in 96-well plates at a density of 5 × 10^4 cell/ml in Dulbecco's modified Eagle's medium supplemented with 10% FBS, 100 unit/ml penicillin, and […]. The cells were incubated in a humidified atmosphere incubator with 5% CO2 and 95% humidity at 37 °C for 24 h. The culture medium was then replaced with fresh medium containing 10 μM αSOs with peptides and incubated for another 24 h. Then the cell medium was replaced with a fresh medium containing 20% MTT (5 mg/ml), and the cells were incubated for an additional 4 h at 37 °C. Then 100 μl of dimethyl sulfoxide was added to dissolve formazan crystals by incubating for 30 min on a shaker at RT. Consequently, absorbance was measured by using a plate reader at 570 nm.

SH-SY5Y cells [2] = details: 10 μM αSOs (0.14 μg/ml) with 35 μg/ml peptide, 24 h, MTT
Method: as §1, §2

α-syn [3] = target: T1, α-syn (Homo sapiens, UniProt P37840); assay: Microfluidic diffusional sizing binding affinity (Fluidity One-W), α-syn monomer; details: 60 μM labeled p216, 0–400 μM α-syn monomer, MilliQ water, 15 min in the dark; 1:1 binding fit of Rh; read-out: Dissociation binding constant (Kd) for α-syn
T1 construct: made in house; host or cells: Escherichia coli BL21 (DE3), plasmid pET11-D
Method: (§3) To determine an actual binding affinity of p216 to αSOs and α-syn, the hydrodynamic radius (Rh) of labeled p216 bound to unlabeled αSOs–α-syn was determined by microfluidic diffusional sizing ([72]). […] Rather, a direct and easily interpretable parameter is provided in the form of the Rh. […] For both species, binding of peptide led to a significant increase in Rh, confirming peptide immobilization in complex with these states. The measured values of ca. 5 and 11 nm for α-syn and αSO, respectively, agree nicely with the known Rh of α-syn ([73]) (4 nm) and αSO (10 nm) ([74]).
(§4) Peptides were labeled with fluidiphore rapid amine 503 (Fluidic Analytics Limited), an amine-reactive fluorescent label whose absorbance shifts from 612 nm (free) to 503 nm when conjugated. About 1 mg dry fluidiphore dye was dissolved in 100 μl acetonitrile and stored at −20 °C. The peptide stock solutions were diluted into labeling buffer (0.1 M NaHCO3, pH 8.3) to a final concentration of 1 mg/ml (100 μl) and mixed with 3 μl of dye solution (final dye concentration of […]) and incubated for 30 min at RT. […]
(§5) Fluidity One-W (Fluidic Analytics Limited) ([101]) was used to measure the binding affinity and Rh of peptides bound to α-syn monomers and oligomers. We determined the lowest concentration of labeled peptides that could be detected by the instrument to be 60 μM. […]

αSO = target: T2, αSO (Homo sapiens, UniProt P37840); assay: Microfluidic diffusional sizing binding affinity (Fluidity One-W), αSO; details: 60 μM labeled p216, 0–84 μM αSO, MilliQ water, 15 min in the dark; 1:1 binding fit of Rh; read-out: Dissociation binding constant (Kd) for αSO
T2 construct: made in house; host or cells: Escherichia coli BL21 (DE3); oligomers formed by shaking the monomer and isolated by SEC (Superose 6)
Method: as §3, §4, §5

αSOs = target: T3, αSOs (Homo sapiens, UniProt P37840); assay: Calcein release assay, αSOs together with peptides; format: biochemical
T3 construct: made in house; host or cells: Escherichia coli BL21 (DE3); oligomers formed by shaking the monomer and isolated by SEC (Superose 6)
Method: αSOs show cytotoxic properties, which have been attributed to their membrane-disrupting ability ([69]). To examine the effect of peptides on membrane permeabilization by αSOs, we used a simple calcein release assay. αSOs, peptides, and aSO–peptide mixtures at 10^−6 to 10^−1 mg/ml peptide were added to calcein-loaded DOPG vesicle, and the extent of calcein release was monitored for 30 min by the increase in fluorescence as calcein leaks out upon membrane permeabilization, leading to dilution and the loss of self-quenching. The time-dependent calcein release data from DOPG vesicles ([70], [71]) in the presence of peptides, αSOs, and αSO–peptides are shown in Figs. S9 and S10. In order to allow easy comparison of all peptides, the calcein release versus concentration (peptides and αSOs) were plotted at the plateau point of release (Fig. 5, A–C). […] Figure 5D compares calcein release percentages of data represented in Figure 5, A and B at peptide concentrations between 0.001 and 0.1 mg/ml, where we see the largest extent of calcein release in general.
Calcein-filled vesicles of DOPG were prepared as described before ([38]). Briefly, DOPG was dissolved in PBS to […], in the presence of calcein at self-quenching concentrations (70 mM) and subjected to 10 freeze–thaw cycles between liquid nitrogen and a 50 °C water bath. After 21 times extrusion through a 100 nm filter, free calcein was separated from vesicles with a PD-10 desalting column (GE Healthcare). Vesicles were stored at 4 °C and used for calcein release assays within 24 h.
Calcein release was measured by mixing peptides and/or αSOs at a final concentration of 10^−6 to 10^−1 mg/ml and 5.2 μg/ml, respectively, in 148 μl with 2 μl of calcein vesicles, and were then loaded onto a 96-well plate (Nunc, Thermo Fischer Scientific) in triplicate. The plate was sealed with Crystal clear sealing tape (Hampton Research), and fluorescence was measured (excitation: 485 nm and emission: 520 nm) for 1 h at 37 °C every 2 min with a 2 s autoshake before each reading on a fluorescence plate reader (Tecan). Finally, 2 μl Triton X-100 (0.2% [v/v]) was added to lyse vesicles, and the maximal fluorescence signal was measured for 20 min under the same reading condition. Background fluorescence was subtracted, and the average signal of calcein release before addition of Triton X-100 (F), after treatment with Triton X-100 (Ft) and for the buffer control (F0) were determined, and calcein release percentage was calculated as follow (Equation 1):(1) CalceinRelease%(CR%)=(F−F0)/(Ft−F0)

α-syn [4] = details: cited from earlier work
From the text: Cell-penetrating peptides (CPPs) ([57]) are defined as a short relatively nontoxic and partly hydrophobic and/or polybasic peptides ([…] 5–35 amino acid residues), with a net positive charge at physiological pH. CPPs have the ability of interacting with negatively charged groups on the cellular membrane, which results in their internalization ([58], [59]) but can also cotransport a variety of cargoes inside the cells ([58], [60], [61], [62]). Cationic CPPs are able to translocate across membranes in a nonendocytotic fashion, generally by one of following mechanisms: the inverted micelle mo ...

[5] = vesicles formed by DOPG and other negatively charged lipids; cited from earlier work
Method: Penetratin forms β-structures on vesicles formed by DOPG and other negatively charged lipids (at concentrations >10^−3 mg/ml), leading to membrane perturbation ...

Molecule: CSCC[C@H](NC(=O)[C@H](CCCNC(=N)N)NC(=O)[C@H](CCCNC(=N)N)NC(=O)[C@H](CC(N)=O)NC(=O)[C@H](CCC(N)=O)NC(=O)[C@H](Cc1ccccc1)NC(=O)[C@@H](N)Cc1c[nH]c2ccccc12)C(=O)N[C@@H](CCCCN)C(=O)N[C@@H](Cc1c[nH]c2ccccc12)C(=O)N[C@@H](CCCCN)C(=O)N[C@@H](CCCCN)C(=O)O [p216] (H-WFQNRRMKWKK-OH)
- Cell viability (MTT) (SH-SY5Y cells [1]; SH-SY5Y cells, 35 μg/ml peptide alone, 24 h): 92%
- Toxicity to SH-SY5Y cells, in words (SH-SY5Y cells [1]; peptide alone, MTT): not toxic
- Increase of cell viability compared with αSOs alone (SH-SY5Y cells [2]): about 20%
- Kd (α-syn [3]): 31.2 µM
- Kd (αSO): 2.7 µM
- Reduction of αSO-induced membrane permeability (αSOs; calcein-filled DOPG LUVs, peptide concentration not stated at the place): 100%
- Reduction of αSOs-induced large anionic unilamellar vesicle membrane permeability (αSOs; peptide at 10^−1 to 10^−3 mg/ml): ~100%

Molecule: RQIKIWFQNRRMKWKK [Penetratin, cell-penetrating peptide from the third helix of the Antennapedia protein homeodomain]
- Effect on fibrillation of α-syn (α-syn [4]): inhibit fibrillation of α-syn
- Concentration at which β-structures form on vesicles, leading to membrane perturbation and permeabilization [5]: > 10^−3 mg/ml
